Experimental data: PubChem BioAssay (NCI)
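GI50 = concentration required for 50% inhibition of growth. Definition used: TGI = concentration required for complete inhibition of growth.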

What was measured:
Experiment in all cases: DTP human tumour cell line panel, 384-well format
SK-MEL-28 melanoma = system: SK-MEL-28 melanoma
NCI-H226 lung = system: NCI-H226 lung
CAKI-1 renal = system: CAKI-1 renal
HT29 colon = system: HT29 colon
SF-539 CNS = system: SF-539 CNS
SN12C renal = system: SN12C renal
K-562 leukemia = system: K-562 leukemia
SR leukemia = system: SR leukemia
DU-145 prostate = system: DU-145 prostate
NCI-H23 lung = system: NCI-H23 lung
MCF7 breast = system: MCF7 breast
MDA-MB-231 breast = system: MDA-MB-231 breast
COLO 205 colon = system: COLO 205 colon
SNB-75 CNS = system: SNB-75 CNS
SK-OV-3 ovarian = system: SK-OV-3 ovarian
SNB-19 CNS = system: SNB-19 CNS
NCI-H322M lung = system: NCI-H322M lung
HCT-15 colon = system: HCT-15 colon
MOLT-4 leukemia = system: MOLT-4 leukemia
UO-31 renal = system: UO-31 renal
NCI-H460 NSCLC = system: NCI-H460 NSCLC
T-47D breast = system: T-47D breast
NCI-H522 lung = system: NCI-H522 lung
HOP-62 NSCLC = system: HOP-62 NSCLC
U251 glioblastoma = system: U251 glioblastoma
SW-620 colon = system: SW-620 colon
HCC-2998 colon = system: HCC-2998 colon
HS 578T breast = system: HS 578T breast
LOX IMVI melanoma = system: LOX IMVI melanoma
BT-549 breast = system: BT-549 breast
CCRF-CEM leukemia = system: CCRF-CEM leukemia
NCI/ADR-RES ovarian = system: NCI/ADR-RES ovarian
RXF 393 renal = system: RXF 393 renal
SF-295 CNS = system: SF-295 CNS
SK-MEL-5 melanoma = system: SK-MEL-5 melanoma
EKVX NSCLC = system: EKVX NSCLC
IGROV1 ovarian = system: IGROV1 ovarian
HCT-116 colon = system: HCT-116 colon
A498 renal = system: A498 renal
HL-60(TB) leukemia = system: HL-60(TB) leukemia
SF-268 CNS = system: SF-268 CNS
OVCAR-3 ovarian = system: OVCAR-3 ovarian
RPMI-8226 leukemia = system: RPMI-8226 leukemia
OVCAR-4 ovarian = system: OVCAR-4 ovarian
UACC-62 melanoma = system: UACC-62 melanoma
A549 NSCLC = system: A549 NSCLC
OVCAR-8 ovarian = system: OVCAR-8 ovarian
KM12 colon = system: KM12 colon
UACC-257 melanoma = system: UACC-257 melanoma
786-0 renal = system: 786-0 renal
TK-10 renal = system: TK-10 renal
M14 melanoma = system: M14 melanoma
ACHN renal = system: ACHN renal
MALME-3M melanoma = system: MALME-3M melanoma
PC-3 prostate = system: PC-3 prostate
MDA-MB-468 breast = system: MDA-MB-468 breast
HOP-92 NSCLC = system: HOP-92 NSCLC
MDA-MB-435 melanoma = system: MDA-MB-435 melanoma

O=c1cc(-c2cccc3c2Sc2ccccc2S3)oc(N2CCOCC2)c1
GI50 (SK-MEL-28 melanoma): 10.4 µM | TGI (SK-MEL-28 melanoma): 22.2 µM | GI50 (NCI-H226 lung): 12.7 µM | TGI (NCI-H226 lung): 25.3 µM | GI50 (CAKI-1 renal): 5.15 µM | TGI (CAKI-1 renal): 18.4 µM | GI50 (HT29 colon): 12 µM | TGI (HT29 colon): 24.7 µM | GI50 (SF-539 CNS): 12.2 µM | TGI (SF-539 CNS): 24.9 µM | GI50 (SN12C renal): 11.5 µM | TGI (SN12C renal): 23.8 µM | GI50 (K-562 leukemia): 5.04 µM | TGI (K-562 leukemia): 16.3 µM | GI50 (SR leukemia): 2.53 µM | TGI (SR leukemia): 4.95 µM | GI50 (DU-145 prostate): 12.9 µM | TGI (DU-145 prostate): 25.7 µM | GI50 (NCI-H23 lung): 16 µM | TGI (NCI-H23 lung): 29.6 µM | GI50 (MCF7 breast): 6.98 µM | TGI (MCF7 breast): 19.7 µM | GI50 (MDA-MB-231 breast): 11.3 µM | TGI (MDA-MB-231 breast): 23.5 µM | GI50 (COLO 205 colon): 15.4 µM | TGI (COLO 205 colon): 28.9 µM | GI50 (SNB-75 CNS): 10.7 µM | TGI (SNB-75 CNS): 22.7 µM | GI50 (SK-OV-3 ovarian): 15.2 µM | TGI (SK-OV-3 ovarian): 28.7 µM | GI50 (SNB-19 CNS): 13.9 µM | TGI (SNB-19 CNS): 26.9 µM | GI50 (NCI-H322M lung): 11 µM | TGI (NCI-H322M lung): 23.1 µM | GI50 (HCT-15 colon): 7.02 µM | TGI (HCT-15 colon): 19.8 µM | GI50 (MOLT-4 leukemia): 7.2 µM | TGI (MOLT-4 leukemia): 19.9 µM | GI50 (UO-31 renal): 6.91 µM | TGI (UO-31 renal): 20.2 µM | GI50 (NCI-H460 NSCLC): 14.4 µM | TGI (NCI-H460 NSCLC): 28 µM | GI50 (T-47D breast): 10.1 µM | TGI (T-47D breast): 21.8 µM | GI50 (NCI-H522 lung): 12.4 µM | TGI (NCI-H522 lung): 24.9 µM | GI50 (HOP-62 NSCLC): 13.6 µM | TGI (HOP-62 NSCLC): 26.6 µM | GI50 (U251 glioblastoma): 12.7 µM | TGI (U251 glioblastoma): 25.5 µM | GI50 (SW-620 colon): 15.9 µM | TGI (SW-620 colon): 29.6 µM | GI50 (HCC-2998 colon): 2.98 µM | TGI (HCC-2998 colon): 11.6 µM | GI50 (HS 578T breast): 6.58 µM | TGI (HS 578T breast): 18.5 µM | GI50 (LOX IMVI melanoma): 12.9 µM | TGI (LOX IMVI melanoma): 25.6 µM | GI50 (BT-549 breast): 7.8 µM | TGI (BT-549 breast): 20.5 µM | GI50 (CCRF-CEM leukemia): 7.99 µM | TGI (CCRF-CEM leukemia): 20.5 µM | GI50 (NCI/ADR-RES ovarian): 11.1 µM | TGI (NCI/ADR-RES ovarian): 23.2 µM | GI50 (RXF 393 renal): 4.89 µM | TGI (RXF 393 renal): 17.6 µM | GI50 (SF-295 CNS): 13.2 µM | TGI (SF-295 CNS): 26.1 µM | GI50 (SK-MEL-5 melanoma): 10.7 µM | TGI (SK-MEL-5 melanoma): 22.7 µM | GI50 (EKVX NSCLC): 11.1 µM | TGI (EKVX NSCLC): 23.2 µM | GI50 (IGROV1 ovarian): 7.75 µM | TGI (IGROV1 ovarian): 20.2 µM | GI50 (HCT-116 colon): 9.36 µM | TGI (HCT-116 colon): 21.6 µM | GI50 (A498 renal): 4.26 µM | TGI (A498 renal): 15.3 µM | GI50 (HL-60(TB) leukemia): 1.52 µM | TGI (HL-60(TB) leukemia): 3.17 µM | GI50 (SF-268 CNS): 12.1 µM | TGI (SF-268 CNS): 24.7 µM | GI50 (OVCAR-3 ovarian): 12.7 µM | TGI (OVCAR-3 ovarian): 25.5 µM | GI50 (RPMI-8226 leukemia): 3.35 µM | TGI (RPMI-8226 leukemia): 13.9 µM | GI50 (OVCAR-4 ovarian): 12.9 µM | TGI (OVCAR-4 ovarian): 25.6 µM | GI50 (UACC-62 melanoma): 10.4 µM | TGI (UACC-62 melanoma): 22.3 µM | GI50 (A549 NSCLC): 11.4 µM | TGI (A549 NSCLC): 23.8 µM | GI50 (OVCAR-8 ovarian): 12.8 µM | TGI (OVCAR-8 ovarian): 25.7 µM | GI50 (KM12 colon): 5.64 µM | TGI (KM12 colon): 17.7 µM | GI50 (UACC-257 melanoma): 10.2 µM | TGI (UACC-257 melanoma): 21.9 µM | GI50 ([…]-0 renal): 10.6 µM | TGI (786-0 renal): 22.6 µM | GI50 (TK-10 renal): 12 µM | TGI (TK-10 renal): 24.4 µM | GI50 (M14 melanoma): 10.6 µM | TGI (M14 melanoma): 22.5 µM | GI50 (ACHN renal): 14.8 µM | TGI (ACHN renal): 28.1 µM | GI50 (MALME-3M melanoma): 6.31 µM | TGI (MALME-3M melanoma): 19.2 µM | GI50 (PC-3 prostate): 6.39 µM | TGI (PC-3 prostate): 19.3 µM | GI50 (MDA-MB-468 breast): 8.61 µM | TGI (MDA-MB-468 breast): 20.7 µM | GI50 (HOP-92 NSCLC): 10.1 µM | TGI (HOP-92 NSCLC): 21.7 µM | GI50 (MDA-MB-435 melanoma): 5.13 µM | TGI (MDA-MB-435 melanoma): 16.3 µM

O=C(O)C1(C(=O)O)CCC1.[NH2-].[NH2-].[Pt+2]
GI50 (CAKI-1 renal): < 0.01 µM | TGI (CAKI-1 renal): < 0.01 µM | GI50 (COLO 205 colon): < 0.01 µM | TGI (COLO 205 colon): < 0.01 µM | GI50 (BT-549 breast): < 0.01 µM | TGI (BT-549 breast): < 0.01 µM | GI50 (HCT-116 colon): < 0.01 µM | TGI (HCT-116 colon): < 0.01 µM | GI50 (A549 NSCLC): < 0.01 µM | TGI (A549 NSCLC): < 0.01 µM
